The text below walks through data of patent US6413936B1, “Glycomimetics as selectin antagonists and pharmaceuticals having antiinflammatory activity” (Glycorex AB, priority 1995, dated 2002).

Read-outs that look alike come from different tables or passages of the source. Numbered stars: 1 amine (or outer) side, 2 acyl side, 3 side chain; on linkers, the order of the positions; unused ones are H or OH. Square brackets hold non-standard residues; d marks the D form. Peptide text beside a SMILES is read from it. ξ: configuration not given here. X1 = CC1O[C@@H](CCCc2ccc(CC(N[*:1])C(=O)[*:2])cc2)C(O)C(O)[C@@H]1O; ξR = N=C(N)NCCCC(N)C(=O)O; ξS = NC(CO)C(=O)O

For test [1], the system named is selectins. Particulars: prior-art glycopeptide analogs; cited from earlier work.
Test [2] deals with myocardial reperfusion injuries. Particulars: animal experiments; cited from earlier work.
In test [3] the test system is P-selectin-dependent lung damage. Particulars: animal experiments; cited from earlier work.
In test [4] the target is T1, P-selectin (Homo sapiens, UniProt P16109).
T1 construct: fused on or other part: constant region (hinge-Fc) of human IgG1 at the C-terminus, used as a capture handle
T1 sequence (P16109 42-321 limits assumed): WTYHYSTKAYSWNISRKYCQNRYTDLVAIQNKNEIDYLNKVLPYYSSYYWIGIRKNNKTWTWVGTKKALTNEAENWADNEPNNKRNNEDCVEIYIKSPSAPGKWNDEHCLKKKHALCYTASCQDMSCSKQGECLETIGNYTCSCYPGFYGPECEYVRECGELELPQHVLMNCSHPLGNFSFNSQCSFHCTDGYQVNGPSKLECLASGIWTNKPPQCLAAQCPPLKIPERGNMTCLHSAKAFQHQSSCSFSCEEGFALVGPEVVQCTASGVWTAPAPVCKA
The test is described as follows: HL60 cell adhesion assay on recombinant soluble P-selectin-IgG1 fusion protein. It counts as cell-based. Particulars: HL60 cell adhesion to P-selectin-IgG1. An excerpt: 5. […] In the course of this, the cells have the opportunity to adhere to the coated plastic.

The test system of another test is selectin. Particulars: cited from earlier work.
For another test, the target named is T2, E-selectin (Homo sapiens, UniProt P16581).
T2 construct: fusion proteins formed from the extracytoplasmatic domains of E- or P-selectin, respectively, and the constant region of human immunoglobulin of the IgG1 subclass; made in house; host or cells: COS-7 cells (transient transfection, culture supernatant)
T2 sequence (P16581 22-556): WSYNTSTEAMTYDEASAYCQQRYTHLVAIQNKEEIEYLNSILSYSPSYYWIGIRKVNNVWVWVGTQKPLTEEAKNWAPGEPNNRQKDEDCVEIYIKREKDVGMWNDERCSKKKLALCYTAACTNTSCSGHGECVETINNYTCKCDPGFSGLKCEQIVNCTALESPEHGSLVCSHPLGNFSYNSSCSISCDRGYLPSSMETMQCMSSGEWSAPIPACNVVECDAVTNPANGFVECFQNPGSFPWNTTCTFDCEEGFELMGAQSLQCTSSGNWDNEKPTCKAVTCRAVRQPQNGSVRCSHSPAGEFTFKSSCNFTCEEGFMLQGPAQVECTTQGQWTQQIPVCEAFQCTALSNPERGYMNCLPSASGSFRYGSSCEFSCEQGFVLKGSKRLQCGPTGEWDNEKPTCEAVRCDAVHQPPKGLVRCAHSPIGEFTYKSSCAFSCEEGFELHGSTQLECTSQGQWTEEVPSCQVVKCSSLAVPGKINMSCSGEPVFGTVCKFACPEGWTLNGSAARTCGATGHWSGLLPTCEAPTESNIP
Description: HL60 cell adhesion assay on recombinant soluble E-selectin-IgG1 fusion protein. Particulars: HL60 cell adhesion to E-selectin-IgG1. It is filed as cell-based.

Test [5] has as its system selectins. Particulars: prior-art mimetics, Wong et al.; cited from earlier work.
For test [6], the target named is T3, P-selectin (Homo sapiens, UniProt P16109).
T3 sequence (P16109 42-830): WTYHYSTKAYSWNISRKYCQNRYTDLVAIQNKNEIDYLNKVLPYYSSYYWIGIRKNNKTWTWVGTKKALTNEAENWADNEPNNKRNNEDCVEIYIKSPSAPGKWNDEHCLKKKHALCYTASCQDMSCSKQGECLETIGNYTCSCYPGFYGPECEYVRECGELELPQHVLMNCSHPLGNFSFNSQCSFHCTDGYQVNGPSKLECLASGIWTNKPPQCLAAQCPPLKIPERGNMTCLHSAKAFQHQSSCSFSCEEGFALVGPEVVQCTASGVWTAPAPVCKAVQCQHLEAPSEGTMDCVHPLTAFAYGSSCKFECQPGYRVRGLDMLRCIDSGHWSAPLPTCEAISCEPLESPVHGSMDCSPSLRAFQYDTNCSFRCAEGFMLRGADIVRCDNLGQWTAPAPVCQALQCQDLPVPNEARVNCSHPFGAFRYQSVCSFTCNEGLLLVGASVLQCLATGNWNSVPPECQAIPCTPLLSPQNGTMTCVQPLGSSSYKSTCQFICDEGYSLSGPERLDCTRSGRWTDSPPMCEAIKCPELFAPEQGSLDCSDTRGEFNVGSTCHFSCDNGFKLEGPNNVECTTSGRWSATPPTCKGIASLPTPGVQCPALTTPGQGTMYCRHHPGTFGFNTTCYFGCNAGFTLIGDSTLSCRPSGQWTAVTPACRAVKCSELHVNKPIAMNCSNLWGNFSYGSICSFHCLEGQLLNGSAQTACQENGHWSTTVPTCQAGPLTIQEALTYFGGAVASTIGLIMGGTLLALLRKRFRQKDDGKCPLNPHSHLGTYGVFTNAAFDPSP
Particulars: read-out: IC50 for binding to P-selectin; cited from earlier work.

Description for E-selectin: In these assays, the ligands may be supplied in their natural form as surface structures on promyelocytic HL60 cells. Since HL60 cells contain ligands and adhesion molecules of very different specificity, the desired specificity of the assay must therefore be provided by the binding component. Preferably, the binding components used are recombinant, soluble, fusion proteins formed from the extracytoplasmatic domains of E- or P-selectin, respectively, and the constant region of human immunoglobulin of the IgG1 subclass. […] An example of a suitable negative control is a fusion protein formed between the extracytoplasmic domain of CD4 and the IgG constant region.
These fusion proteins are then used in a cell adhesion assay in which COS cells transfected with the recombinant fusion proteins are first bound to the surface of a microtiter plate. The compound to be tested is added to the wells of the microtiter platein varying concentrations, followed by HL60 cells. After a defined period of time, the wells of the microtiter plate are washed and the HL60 cells adhering to the plate are counted. In a preferred embodiment, the HL60 cells are prelabeled with a fluorescent dye to facilitate cell counting. The number of cells adhering to the plate allows quantification of the inhibitory properties of the compound under test. […]

On to `C[C@@H]1OC(CC(=O)C2CCC[C@H]2C(=O)N[C@@H](Cc2ccccc2)C(=O)O)[C@@H](O)[C@H](O)[C@@H]1O` (some centres unmarked) [(2)], for which the IC50 (commonly the concentration that inhibits the measured activity by half) in the test on selectins [1] is roughly 1 mM.
On to sialyl-Lewis-X [SLeX], for which the “protection against myocardial reperfusion injuries” value in test [2] is given as “used successfully”. For the same compound, the “protection against P-selectin-dependent lung damage” value in test [3] was “used successfully”.
With `CC1O[C@@H](CCCc2ccc(CC(N)C(=O)NC(CCCNC(=N)N)C(=O)NCC(=O)N[C@@H](CC(=O)O)C(=O)NC(CO)C(=O)O)cc2)C(O)C(O)[C@@H]1O` (stereo partly drawn) [Compound 36, Ser-Asp-Gly-Arg-[C-FucPhe]] (H-[X1][ξR]GD[ξS]-OH), the IC50 on P-selectin [4] was in the range of 3 to 5 mM.
Turning to `COC1OC(C)C(O)(CC(=O)CCCOC2(C(=O)O)CC(O)C(NC(C)=O)C([C@H](O)[C@H](O)CO)O2)C(O)C1O` (some centres unmarked), the “affinity for selectin binding” value in the test on selectin is reported as “only low affinity”.
As to `CC1O[C@@H](C/C=C/c2ccc(C(=O)O)cc2)C(O)[C@@H](O)[C@@H]1O` (some centres unmarked) [Compound 23], the IC50 on P-selectin [4] and on E-selectin was 2 mM each time.
`C[C@@H]1OC(CCCCC2O[C@H](CO)[C@H](O)[C@H](OCC(=O)O)[C@H]2O)[C@@H](O)C(O)[C@@H]1O` (some centres unmarked) [(3)]: the half-maximal inhibitory concentration (IC50) in the test on selectins [5] was 10 to 20 mM.
In the case of `C[C@@H]1O[C@@H](CC(=O)CO[C@H]2CC[C@@]3(C)C(CC[C@]4(C)[C@H]3C(=O)C=C3[C@@H]5C[C@@](C)(C(=O)O)CC[C@]5(C)CC[C@]34C)C2(C)C)[C@@H](O)[C@H](O)[C@@H]1O` (some centres unmarked) [(4a)], the IC50 at P-selectin [6] was 750 µM.
As for `C[C@@H]1O[C@@H](CCCc2ccc(CC(N)C(=O)O)cc2)[C@@H](O)[C@H](O)[C@@H]1O` (some centres unmarked) [Compound 20], the IC50 on P-selectin [4] and on E-selectin was 2 mM in each case.
